# Assay results published in US20030022821A1, “Bioactive peptides” (priority 1998, published 2003).
# Like-named read-outs stand apart in the source and are kept apart here. Square brackets hold non-standard residues; d marks the D form. Ends that are not written are not given here. Peptide text beside a SMILES is read from it. * marks the point of attachment. Trp(2-Pmc) = Cc1c(C)c(S(=O)(=O)c2[nH]c3ccccc3c2C[C@H](N)C(=O)O)c(C)c2c1OC(C)(C)CC2; Bip = N[C@@H](Cc1ccc(-c2ccccc2)cc1)C(=O)O; Fmoc = O=C(OCC1c2ccccc2-c2ccccc21)*; Acm = CC(=O)NC*
# Tests used:
# [1] = system: human red blood cells; test: Hemolytic assay; type: cell-based
# Method: The hemolytic activities of the peptides were determined using fresh human red blood cells. 8 ml blood was taken from a healthy person. 4 ml blood was transferred to a polycarbonate tube containing heparin to a final concentration of 10 U/ml, and the remaining 4 ml blood was transferred to a glass tube containing EDTA with final concentration of 15% EDTA. The erythrocytes were isolated from heparin-treated blood by centrifugation in 1500 rpm for 10 min and washed three times with phosphate-buffered saline (PBS) to remove plasma and buffy coat. The cell pellet was resuspended in PBS to make the final volume of 4 ml. The peptide was diluted to a concentration of 2 mg/ml and 0.1 mg/ml. The peptide was further diluted to the concentrations as stated in Table 15. For each tube PBS was added first, then RBCs and peptide solutions. The hematocrit in the blood treated with EDTA was determined after 30 min with Sysmex K-1000, and the resuspended RBCs were diluted into 10% hematocrit. RBCs in PBS (1%) with and without peptides (Table 15) were incubated in a shaker at […] for 1 hour and then centrifuged at 4000 rpm for 5 min. The supernatant were carefully transferred to new polycarbonate tubes and the absorbance of the supernatant was measured at 540 nm. Baseline hemolysis was hemoglobin released in the presence of PBS, and 100% hemolysis was hemoglobin released in the presence of 0.1% Triton X-100.
# [2] = system: Meth A cells (murine sarcoma cell line); test: Cytotoxicity on Meth A cells, MTT method
# Method: Peptide solutions (0.1 ml) were added and the plates incubated at 37° C. for 30 minutes, 4 hours or 24 hours. The cytotoxicity was measured using the MTT method (Mosmann et al., J. Immunol. (1986) 136, 2348-2357).
# Cells in the growth phase were harvested and washed in fresh medium and injected subcutaneously into the abdominal region of the mice.
# The cytotoxic effect of the peptides on different murine and human tumor cells were measured using the MTT method (Mosmann et al., J. Immunol. (1986) 136, 2348-2357). MTT is a soluble tetrazolium salt yielding a yellow solution when prepared in media or salt solutions lacking phenol red. Dissolved MTT is converted to an insoluble purple formazan by cleavage of the tetrazolium ring by dehydrogenase enzymes. This water insoluble formazan can be solubilized using isopropanol or other solvents and the dissolved material is measured spectrophotometrically. The absorbance was measured as a function of concentration of converted dye.
# Cells were maintained in […] medium containing 10% FBS, 1% L-glutamine and 0.1% penicillin and streptomycin. Cells to be used in the assay were grown to confluency, trypsinated and split to single cell suspension, counted and centrifuged at 1500 rpm for 10 min. […][…] of cell suspension was transferred to each well on a 96-well microtiter plate. The cells were stimulated by adding […] of various concentrations of peptides diluted with assay medium to each well. The final concentrations of peptide were for example: 5, 10, 20, 40, 60, 80, 100, and 200 mg/ml. […] As a negative control only medium was added to the cells, and as a positive control (100% killing) 1% triton X-100 was added. Following an incubation period of 4 h., 20 ml MTT dissolved in PBS at a concentration of 5 mg/ml was added to each well, and the plate was incubated further for 2 h. 130 ml of the supernatant were then removed and […] acid alcohol (0.04-0.1 N HCl in isopropanol) added to each well to dissolve the dark blue crystals. The plate was placed on a shaker for 1 h and read spectrophotometrically at 590 nm in a microtiterplate reader using the Softmaxâ program.
# [3] = system: Escherichia coli ATCC 25922; type: cell-based
# Outline: (§1)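 Bacteria in mid-log phase, grown in 2% Bacto Peptone water, were tested by standard microdilution in 1% Bacto Peptone water at an inoculum of 2×10^6 CFU/ml. Runs were in triplicate, and peptide concentration in the wells was checked by HPLC.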
# [4] = system: Staphylococcus aureus ATCC 25923; type: cell-based
# Outline: as §1
# [5] = read-out: MethA IC 50, Table 7, peptide required to kill 50% of MethA cells
Molecule,MIC E. coli ([3]; ATCC 25922),MIC S. aureus ([4]; ATCC 25923),EC50 ([1]; red cells of human),"IC50 [2, 5]",% Hemolysis 10 μg/ml ([1]; red cells of human),% Hemolysis 100 μg/ml ([1]; red cells of human),MethA IC50 ([2]; 4 h),further results
"CSCC[C@H](NC(=O)[C@H](CCCNC(=N)N)NC(=O)[C@H](Cc1c[nH]c2ccccc12)NC(=O)[C@H](C)NC(=O)[C@H](Cc1c[nH]c2ccccc12)NC(=O)[C@H](CCCNC(=N)N)NC(=O)[C@H](CCCNC(=N)N)NC(=O)[C@H](C)NC(=O)[C@H](CCCCN)NC(=O)[C@H](Cc1ccc(-c2ccccc2)cc1)NC(=O)[C@H](Cc1c[nH]c2ccccc12)NC(=O)[C@H](C)NC(=O)[C@@H]1CCCN1)C(=O)N[C@@H](CCCCN)C(=O)N[C@@H](CCCCN)C(=O)N[C@@H](CC(C)C)C(=O)N[C@@H](C)C(=O)N[C@@H](C)C(=O)O [LFB1431A2, 6, 10, 17Bip4] (H-PAW[Bip]KARRWAWRMKKLAA-OH; N-terminus assumed)",,,336 µM,,,,,EC50 ([2]; 4 h): 23.4 µM
"CSCC[C@H](NC(=O)[C@H](CCCNC(=N)N)NC(=O)[C@H](Cc1c[nH]c2ccccc12)NC(=O)[C@H](C)NC(=O)[C@H](Cc1c[nH]c2ccccc12)NC(=O)[C@H](CCCNC(=N)N)NC(=O)[C@H](CCCNC(=N)N)NC(=O)[C@H](C)NC(=O)[C@H](CCCCN)NC(=O)[C@H](Cc1ccccc1)NC(=O)[C@H](Cc1c[nH]c2ccccc12)NC(=O)[C@H](C)NC(=O)[C@@H]1CCCN1)C(=O)N[C@@H](CCCCN)C(=O)N[C@@H](CCCCN)C(=O)N[C@@H](CC(C)C)C(=O)N[C@@H](C)C(=O)N[C@@H](C)C(=O)O [LFB 14-31 A2,6, 10, 17]",20 µg/mL,2.5 µg/mL,> 440 µM,165 µM,,,,EC50 ([2]; 4 h): 165 µM; IC50 ([2]; 4 h): 165 µM
"PAWFKAFRWAWRMLKKAA-OH [LFB 14-31 A2,6, 10, 17F7K16L14]",10 µg/mL,10 µg/mL,> 440 µM,28.1 µM,,,,
"PAWFKARRWAWRMKKLA-OH [LFB 14-30 A2,6, 10, 17]",,,> 454 µM,,,,,IC50 ([2]; 4 h): > 227 µM
RRWAWRMKK-OH [LFB 20-28 A4],>100 µg/mL,>100 µg/mL,,,0%,1.68%,500 µg/mL,
CSCC[C@H](NC(=O)[C@H](CCCNC(=N)N)NC(=O)[C@H](Cc1c[nH]c2ccccc12)NC(=O)[C@H](CCC(N)=O)NC(=O)[C@H](Cc1c(S(=O)(=O)c2c(C)c(C)c3c(c2C)CCC(C)(C)O3)[nH]c2ccccc12)NC(=O)[C@H](CCCNC(=N)N)NC(=O)[C@H](CCCNC(=N)N)NC(=O)[C@H](CSCNC(C)=O)NC(=O)[C@H](CCCCN)NC(=O)[C@@H](N)Cc1ccccc1)C(=O)N[C@@H](CCCCN)C(=O)N[C@@H](CCCCN)C(=O)N[C@@H](CC(C)C)C(=O)NCC(=O)N[C@@H](C)C(=O)O [LFB PMC6],,,,,3.4%,6%,148 µg/mL,EC 50 [1]: >1000 µg/mL; EC50 [1]: > 429 µM; MIC E. coli ([3]; Table 11): 10 µg/mL; MIC S. aureus ([4]; Table 11): 10 µg/mL
"PAWRKARRWARRMKKLAA-OH [LFB 14-31 A2,6, 10, 17R4, 11]",,,> 444 µM,75.5 µM,,,,
"PAWFKARRWAWRMKK-OH [LFB 14-28 A2,6, 10]",,,> 438 µM,,,,,IC50 ([2]; 4 h): > 248 µM
"PAWFKARRWAWRMKKL-OH [LFB 14-29 A2,6, 10]",,,> 469 µM,,,,,IC50 ([2]; 4 h): > 235 µM
CSCC[C@H](NC(=O)[C@H](CCCNC(=N)N)NC(=O)[C@H](C)NC(=O)[C@H](CCC(N)=O)NC(=O)[C@H](Cc1c(S(=O)(=O)c2c(C)c(C)c3c(c2C)CCC(C)(C)O3)[nH]c2ccccc12)NC(=O)[C@H](CCCNC(=N)N)NC(=O)[C@H](CCCNC(=N)N)NC(=O)[C@H](CSCNC(C)=O)NC(=O)[C@H](CCCCN)NC(=O)[C@H](Cc1ccccc1)NC(=O)OCC1c2ccccc2-c2ccccc21)C(=O)N[C@@H](CCCCN)C(=O)N[C@@H](CCCCN)C(=O)N[C@@H](CC(C)C)C(=O)NCC(=O)N[C@@H](C)C(=O)O [LFB A8 FMOC PMC] (Fmoc-FKC(Acm)RR[Trp(2-Pmc)]QARMKKLGA-OH),,,,,6.75%,45.4%,,concentration killing Meth A tumor cells ([2]; after 4 hours incubation): 50 µg/mL; concentration killing Meth A tumor cells ([2]; after ½ hour incubation): higher than 100 μg/ml

# Continued, in another order:
MIC E. coli ([3]; ATCC 25922),MIC S. aureus ([4]; ATCC 25923),Molecule,EC50 ([1]; red cells of human),"IC50 [2, 5]",% Hemolysis 10 μg/ml ([1]; red cells of human),% Hemolysis 100 μg/ml ([1]; red cells of human),MethA IC50 ([2]; 4 h),further results
5 µg/mL,10 µg/mL,CSCC[C@H](NC(=O)[C@H](CCCNC(=N)N)NC(=O)[C@H](Cc1c[nH]c2ccccc12)NC(=O)[C@H](CCC(N)=O)NC(=O)[C@H](Cc1c[nH]c2ccccc12)NC(=O)[C@H](CCCNC(=N)N)NC(=O)[C@H](CCCNC(=N)N)NC(=O)OCC1c2ccccc2-c2ccccc21)C(=O)N[C@@H](CCCCN)C(=O)N[C@@H](CCCCN)C(=O)N[C@@H](CC(C)C)C(=O)O [LFB 20-29 FMOC] (Fmoc-RRWQWRMKKL-OH),,,10.3%,28.2%,140 µg/mL,
30 µg/mL,20 µg/mL,"PAWRKARRWAWRMKKLAA-OH [LFB 14-31 A2,6, 10, 17R4]",> 438 µM,75.8 µM,,,,
60 µg/mL,10 µg/mL,CSCC[C@H](NC(=O)[C@H](CCCNC(=N)N)NC(=O)[C@H](C)NC(=O)[C@H](CCC(N)=O)NC(=O)[C@H](Cc1c[nH]c2ccccc12)NC(=O)[C@H](CCCNC(=N)N)NC(=O)[C@H](CCCNC(=N)N)NC(=O)[C@H](CSCNC(C)=O)NC(=O)[C@H](CCCCN)NC(=O)[C@H](Cc1ccccc1)NC(=O)OCC1c2ccccc2-c2ccccc21)C(=O)N[C@@H](CCCCN)C(=O)N[C@@H](CCCCN)C(=O)N[C@@H](CC(C)C)C(=O)NCC(=O)N[C@@H](C)C(=O)O [LFB A8 FMOC] (Fmoc-FKC(Acm)RRWQARMKKLGA-OH),,,2.87%,7.79%,,killing of Meth A cells ([2]; 250 μg/ml at ½ hour and 4 hours): killed most of the cells
10 µg/mL,2.5 µg/mL,"PAWRKAFRWAWRMKKLAA-OH [LFB 14-31 A2,6, 10, 17F7R4]",> 440 µM,30.2 µM,,,,
25 µg/mL,160 µg/mL,CSCC[C@H](NC(=O)[C@H](CCCNC(=N)N)NC(=O)[C@H](Cc1c[nH]c2ccccc12)NC(=O)[C@H](CCC(N)=O)NC(=O)[C@H](Cc1c[nH]c2ccccc12)NC(=O)[C@H](CCCNC(=N)N)NC(=O)[C@H](CCCNC(=N)N)NC(=O)[C@H](CSCNC(C)=O)NC(=O)[C@H](CCCCN)NC(=O)[C@@H](N)Cc1ccccc1)C(=O)N[C@@H](CCCCN)C(=O)N[C@@H](CCCCN)C(=O)N[C@@H](CC(C)C)C(=O)N[C@@H](C)C(=O)N[C@@H](C)C(=O)O [LFB A14] (H-FKC(Acm)RRWQWRMKKLAA-OH),,,,,500 µg/mL,
30 µg/mL,150 µg/mL,CSCC[C@H](NC(=O)[C@H](CCCNC(=N)N)NC(=O)[C@H](Cc1c[nH]c2ccccc12)NC(=O)[C@H](C)NC(=O)[C@H](Cc1c[nH]c2ccccc12)NC(=O)[C@H](CCCNC(=N)N)NC(=O)[C@H](CCCNC(=N)N)NC(=O)[C@H](CSCNC(C)=O)NC(=O)[C@H](CCCCN)NC(=O)[C@@H](N)Cc1ccccc1)C(=O)N[C@@H](CCCCN)C(=O)N[C@@H](CCCCN)C(=O)N[C@@H](CC(C)C)C(=O)NCC(=O)N[C@@H](C)C(=O)O [LFB A7] (H-FKC(Acm)RRWAWRMKKLGA-OH),,,,,500 µg/mL,
